Reference: patent US20110172296A1, “MODULATION OF TRANSFORMING GROWTH FACTOR-BETA 1 EXPRESSION” (priority 2010, published 2011)
Several values for one entry are separate records, joined by “and”; a condition that tells them apart may be missing. Equal values may be shown once. e = 2'-O-(2-methoxyethyl) (MOE); d = 2'-deoxy (DNA)

Legend:
human TGF-beta1 mRNA [1] = experiment: Dose-dependent antisense inhibition of human TGF-beta1 in HuVEC cells, Lipofectamine 2000, 0.3292-80 nM, comparison with oligos of U.S. Pat. No. 6,436,909 (Example 4); assay type: cell-based
Protocol: The dose-dependent antisense inhibition potential of these gapmers was compared with that of Oligo IDs 104992 and 1138498 from U.S. Pat. No. 6,436,909. Cells were plated at a density of 5,000 cells per well and transfected using Lipofectamine™ 2000 reagent with 0.3292 nM, 0.9877 nM, 2.963 nM, 8.8889 nM, 26.6667 nM, and 80 nM concentrations of antisense oligonucleotide for 4 hours, as specified in Table 4. After a recovery period of approximately 16 hours, RNA was isolated from the cells and TGF-beta1 mRNA levels were measured by quantitative real-time PCR. Human TGF-beta1 primer probe set RTS 2980 was used to measure mRNA levels. TGF-beta1 mRNA levels were adjusted according to total RNA content, as measured by RIBOGREEN®. Results are presented as percent inhibition of TGF-beta1, relative to untreated control cells. […] All the antisense oligonucleotides in Table 4 target human TGF-beta1 mRNA (SEQ ID NO: 1).

BALB/c mice [2] = details: mouse, in vivo
Protocol: (§1) These gapmer oligonucleotides were designed to target human TGF-beta1 and have varying degrees of mismatch with murine TGF-beta1 sequence, as shown in Table 1. Oligo ID Nos. 413982 and 414040 have greater than 3 mismatches to the murine TGF-beta1 sequence. Oligo ID No. 414035 has 2 mismatches to murine TGF-beta1. Oligo ID No. 414036 has no mismatches to murine TGF-beta1.
(§2) BALB/c mice were injected with 25 mg/kg or 50 mg/kg of Oligo ID Nos. 413982, 414035, 414036, or 414040 twice a week for 4 weeks. A control group of mice was injected with phosphate buffered saline (PBS) twice a week for 4 weeks. Plasma transaminase levels were evaluated bi-weekly.
(§3) To evaluate the impact of TGF-beta1 antisense oligonucleotides on the hepatic function of mice described above, plasma concentrations of transaminases were measured using an automated clinical chemistry analyzer (Hitachi Olympus AU400e, Melville, N.Y.).

human TGF-beta1 mRNA [3] = experiment: Dose-dependent antisense inhibition of human TGF-beta1 in HuVEC cells, Lipofectamine 2000, 0.9375-30 nM (Example 3); assay type: cell-based; details: Lipofectamine 2000
Protocol: Cells were plated at a density of 5,000 cells per well and transfected using Lipofectamine™ 2000 reagent with 0.9375 nM, 1.875 nM, 3.75 nM, 7.5 nM, 15 nM, and 30 nM concentrations of antisense oligonucleotide for 4 hours, as specified in Table 3. After a recovery period of approximately 16 hours, RNA was isolated from the cells and TGF-beta1 mRNA levels were measured by quantitative real-time PCR. Human TGF-beta1 primer probe set RTS 2980 (forward sequence CTCTCCGACCTGCCACAGA, SEQ ID NO: 160; reverse sequence […], SEQ ID NO: 53; probe sequence CCCTATTCAAGACCACCCACCTTCTGGTX, SEQ ID NO: 161) was used to measure mRNA levels. TGF-beta1 mRNA levels were adjusted according to total RNA content, as measured by RIBOGREEN®. Results are presented as percent inhibition of TGF-beta1, relative to untreated control cells.

human TGF-beta1 mRNA [4] = experiment: Antisense inhibition of human TGF-beta1 mRNA in HuVEC cells, single 10 nM dose, Lipofectamine 2000 (Example 2); assay type: cell-based
Summary of the method: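 HuVEC cells (5,000/well) transfected with 10 nM 2-13-5 MOE gapmer (phosphorothioate, 5-methylcytosine) via Lipofectamine 2000 for 4 h, then recovered ~24 h. mRNA measured by qRT-PCR, normalized to RIBOGREEN total RNA; percent inhibition versus untreated cells.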

BALB/c mice [5] = experiment: Tolerability in BALB/c mice: plasma transaminases ALT and AST (Example 7); details: for aspartate transaminase levels: plasma
Protocol: as §1, §2, §3

human TGF-beta1 mRNA [6] = experiment: Dose-dependent confirmation of antisense inhibition of human TGF-beta1 in HuVEC cells, electroporation (Example 6); assay type: cell-based
Protocol: The gapmers from Example 5 (see Table 5) were also tested at various doses in HuVEC cells using electroporation as the transfection reagent. Cells were plated at a density of 20,000 cells per well and transfected using electroporation with 0.15625 nM, 0.3125 nM, 0.625 nM, 1.25 nM, 2.5 nM, 5 nM, 10 nM, and 20 nM concentrations of antisense oligonucleotide for 4 hours, as specified in Table 6. After a recovery period of approximately 16 hours, RNA was isolated from the cells and TGF-beta1 mRNA levels were measured by quantitative real-time PCR. TGF-beta1 mRNA levels were adjusted according to total RNA content, as measured by RIBOGREEN®. Results are presented as percent inhibition of TGF-beta1, relative to untreated control cells.

human TGF-beta1 mRNA [7] = experiment: Dose-dependent confirmation of antisense inhibition of human TGF-beta1 in HuVEC cells after large-scale synthesis, Lipofectamine 2000, 0.007-15 nM (Example 5); assay type: cell-based; details: for percent inhibition of TGF-beta1: Lipofectamine 2000
Protocol: Cells were plated at a density of 5,000 cells per well and transfected using Lipofectamine™ 2000 reagent with 0.007 nM, 0.021 nM, 0.062 nM, 0.185 nM, 0.556 nM, 1.667 nM, 5 nM, and 15 nM concentrations of antisense oligonucleotide for 4 hours, as specified in Table 5. After a recovery period of approximately 16 hours, RNA was isolated from the cells and TGF-beta1 mRNA levels were measured by quantitative real-time PCR. Human TGF-beta1 primer probe set RTS 2980 was used to measure mRNA levels. TGF-beta1 mRNA levels were adjusted according to total RNA content, as measured by RIBOGREEN®. Results are presented as percent inhibition of TGF-beta1, relative to untreated control cells.

[8] = tested on: Col1α2 mRNA expression in rat skin; experiment: Col1α2 mRNA expression in rat model of skin fibrosis and wounding, intradermal treatment (Example 9); assay type: in vivo
Text: Scar and fibrotic tissues are mainly composed of collagen, especially collagen1α2 (Col1α2). Therefore, the expression of Col1α2 can be used as a marker for the severity of scarring, especially in skin. We have evaluated the ability of a TGF-beta1 ASO to suppress the expression of Col1α2 in rat skin subsequent to full-thickness skin wounding, an injury that typically leads to a 4-6 fold induction in Col1α2 expression.
On Day 1 of the study, a 0.8 centimeter biopsy punch was used to create full-thickness wounds on the back of anesthetized adult hairless rats. Two biopsies were performed on each rat's back; one in the lower left quadrant, and one in the upper right quadrant. The wounds were left open, but dressed with a sterile occlusive bandage, which were left in place for 24 hours.
Biopsy sites were treated intradermally with PBS (vehicle) or a 3 mg dose of a rat specific TGF-beta1 antisense oligonucleotide (Oligo ID 433849; SEQ ID NO. 166) on Days 1, 5, 9, and 13 post-biopsy. Animals were sacrificed on Day 14 post-biopsy. […]
A subset of the excised skin from each initial biopsy site was retained and prepared for Col1α2 mRNA expression (by RT-PCR). […] On day 15, animals were euthanized, a sample of skin from the center of the wound was obtained with a 0.5 cm biopsy punch, and Col1α2 mRNA expression determined.

414035 (antisense GTCCTTAAATACAGCCCCCA; sugars from the 5' end e2 d13 e5, backbone and methylation of C not given here) [compound 414035]
percent inhibition of TGF-beta1 (human TGF-beta1 mRNA [1]; 0.3292 nM): 74% | percent inhibition of TGF-beta1 (human TGF-beta1 mRNA [1]; 0.9877 nM): 84% | percent inhibition of TGF-beta1 (human TGF-beta1 mRNA [1]; 2.963 nM): 92% | percent inhibition of TGF-beta1 (human TGF-beta1 mRNA [1]; 8.8889 nM): 94% | percent inhibition of TGF-beta1 (human TGF-beta1 mRNA [1]; 26.6667 nM): 93% | percent inhibition of TGF-beta1 (human TGF-beta1 mRNA [1]; 80.0 nM): 93% | tolerability compared to Oligo ID 105204 (BALB/c mice [2]): improved tolerability | percent inhibition of TGF-beta1 (human TGF-beta1 mRNA [3]; 0.9375 nM): 64% | percent inhibition of TGF-beta1 (human TGF-beta1 mRNA [3]; 1.875 nM): 75% | percent inhibition of TGF-beta1 (human TGF-beta1 mRNA [3]; 3.75 nM): 88% | percent inhibition of TGF-beta1 (human TGF-beta1 mRNA [3]; 7.5 nM): 94% | percent inhibition of TGF-beta1 (human TGF-beta1 mRNA [3]; 15 nM): 95% | percent inhibition of TGF-beta1 (human TGF-beta1 mRNA [3]; 30 nM): 94% | % inhibition (human TGF-beta1 mRNA [4]; 10 nM oligonucleotide, HuVEC, relative to untreated control cells, gapmers targeted to SEQ ID NO: 1): 89% | inhibition of a TGF-beta1 mRNA (human TGF-beta1 mRNA [4]; threshold lists of Oligo IDs, 10 nM): 60% and 65% and 70% and 75% and 80% and 85% | alanine transaminase levels (BALB/c mice [5]; 25 mg/kg twice a week, Week 2): 56 IU/L | alanine transaminase levels (BALB/c mice [5]; 25 mg/kg twice a week, Week 4): 45 IU/L | aspartate transaminase levels (BALB/c mice [5]; 25 mg/kg twice a week, Week 2): 82 IU/L | aspartate transaminase levels (BALB/c mice [5]; 25 mg/kg twice a week, Week 4): 116 IU/L | alanine transaminase levels (BALB/c mice [5]; 50 mg/kg twice a week, Week 2): 66 IU/L | alanine transaminase levels (BALB/c mice [5]; 50 mg/kg twice a week, Week 4): 67 IU/L | aspartate transaminase levels (BALB/c mice [5]; 50 mg/kg twice a week, Week 2): 123 IU/L | aspartate transaminase levels (BALB/c mice [5]; 50 mg/kg twice a week, Week 4): 155 IU/L | increase in ALT/AST (BALB/c mice [5]; 25 or 50 mg/kg twice a week for four weeks): < 3 fold | percent inhibition of TGF-beta1 mRNA relative to untreated control cells (human TGF-beta1 mRNA [6]; 0.15625 nM oligonucleotide): 17% | percent inhibition of TGF-beta1 mRNA relative to untreated control cells (human TGF-beta1 mRNA [6]; 0.3125 nM oligonucleotide): 49% | percent inhibition of TGF-beta1 mRNA relative to untreated control cells (human TGF-beta1 mRNA [6]; 0.625 nM oligonucleotide): 63% | percent inhibition of TGF-beta1 mRNA relative to untreated control cells (human TGF-beta1 mRNA [6]; 1.25 nM oligonucleotide): 77% | percent inhibition of TGF-beta1 mRNA relative to untreated control cells (human TGF-beta1 mRNA [6]; 2.5 nM oligonucleotide): 89% | percent inhibition of TGF-beta1 mRNA relative to untreated control cells (human TGF-beta1 mRNA [6]; 5.00 nM oligonucleotide): 94% | percent inhibition of TGF-beta1 mRNA relative to untreated control cells (human TGF-beta1 mRNA [6]; 10.00 nM oligonucleotide): 94% | percent inhibition of TGF-beta1 mRNA relative to untreated control cells (human TGF-beta1 mRNA [6]; 20 nM oligonucleotide): 94% | percent inhibition of TGF-beta1 (human TGF-beta1 mRNA [7]; 0.007 nM): 9% | percent inhibition of TGF-beta1 (human TGF-beta1 mRNA [7]; 0.021 nM): 26% | percent inhibition of TGF-beta1 (human TGF-beta1 mRNA [7]; 0.062 nM): 45% | percent inhibition of TGF-beta1 (human TGF-beta1 mRNA [7]; 0.185 nM): 59% | percent inhibition of TGF-beta1 (human TGF-beta1 mRNA [7]; 0.556 nM): 76% | percent inhibition of TGF-beta1 (human TGF-beta1 mRNA [7]; 1.667 nM): 84% | percent inhibition of TGF-beta1 (human TGF-beta1 mRNA [7]; 5 nM): 90% | percent inhibition of TGF-beta1 (human TGF-beta1 mRNA [7]; 15 nM): 91% | IC50 (human TGF-beta1 mRNA [7]; Lipofectamine 2000, Example 5): 0.13 nM

433849 (antisense GTCCTTAAATACAGCCCCGG; listed as DNA, chemistry not given here) [compound 433849]
expression of Col1α2 in rat skin ([8]; 3 mg intradermally on Days 1, 5, 9, 13 post-biopsy, day 14 after skin wounding): significantly reduced | % Col1α2 mRNA compared to the unwounded control ([8]; hairless rats, full-thickness skin wound, 3 mg intradermal on Days 1, 5, 9, 13, day 14 after skin wounding): 83%
